This note sets out measurements from patent publication US7625948B2, “Ester compound and medicinal use thereof” (Japan Tobacco Inc., priority 2002, dated 2009).

Read-outs that look alike come from different tables or passages of the source.

One test has as its system HepG2 cells. Put plainly: Test Example 2: inhibition of apolipoprotein B secretion from HepG2 cells, ELISA (also used for metabolites in Test Example 8). To be noted: Homo sapiens. The test is classed as cell-based. Put shortly:
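HepG2 cells cultured 24 h, then exposed 24 h to compounds or metabolites in medium with 0.5% DMSO. Secreted apo B in supernatant quantified by sandwich ELISA (HRP, ABTS, 405 nm) against purified human apo B standard; % inhibition vs DMSO group, IC50 derived.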
In general terms: In an ELISA, binding on a coated surface is turned into a signal by an enzyme label.

Test [1] deals with T1, Microsomal triglyceride transfer protein (MTP) from bovine liver (Bos taurus, UniProt P55156).
T1 construct: from tissue; host or cells: bovine liver
T1 sequence (P55156 12-887): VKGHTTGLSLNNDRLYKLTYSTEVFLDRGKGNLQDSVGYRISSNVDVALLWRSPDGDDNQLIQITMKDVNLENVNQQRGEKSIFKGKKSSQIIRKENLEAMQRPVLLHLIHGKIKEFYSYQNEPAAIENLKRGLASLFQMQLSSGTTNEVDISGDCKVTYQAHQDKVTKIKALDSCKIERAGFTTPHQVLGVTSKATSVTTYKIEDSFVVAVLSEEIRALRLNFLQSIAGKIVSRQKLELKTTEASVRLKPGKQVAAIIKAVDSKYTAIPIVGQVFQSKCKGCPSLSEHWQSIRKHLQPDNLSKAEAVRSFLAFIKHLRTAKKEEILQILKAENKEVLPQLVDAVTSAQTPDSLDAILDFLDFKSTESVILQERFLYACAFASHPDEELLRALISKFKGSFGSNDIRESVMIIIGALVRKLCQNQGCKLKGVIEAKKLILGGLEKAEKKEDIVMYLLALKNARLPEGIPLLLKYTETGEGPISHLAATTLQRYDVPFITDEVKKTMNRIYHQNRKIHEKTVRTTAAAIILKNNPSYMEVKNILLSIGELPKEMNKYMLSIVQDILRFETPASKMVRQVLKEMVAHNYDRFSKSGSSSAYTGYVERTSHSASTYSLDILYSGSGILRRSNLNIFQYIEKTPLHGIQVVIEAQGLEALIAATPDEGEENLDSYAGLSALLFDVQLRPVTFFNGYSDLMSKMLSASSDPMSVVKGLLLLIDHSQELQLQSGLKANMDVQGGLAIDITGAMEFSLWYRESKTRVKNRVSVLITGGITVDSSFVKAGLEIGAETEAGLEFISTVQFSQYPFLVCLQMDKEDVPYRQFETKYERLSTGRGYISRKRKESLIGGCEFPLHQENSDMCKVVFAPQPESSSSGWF
T1 sequence (P05307 21-510 partner): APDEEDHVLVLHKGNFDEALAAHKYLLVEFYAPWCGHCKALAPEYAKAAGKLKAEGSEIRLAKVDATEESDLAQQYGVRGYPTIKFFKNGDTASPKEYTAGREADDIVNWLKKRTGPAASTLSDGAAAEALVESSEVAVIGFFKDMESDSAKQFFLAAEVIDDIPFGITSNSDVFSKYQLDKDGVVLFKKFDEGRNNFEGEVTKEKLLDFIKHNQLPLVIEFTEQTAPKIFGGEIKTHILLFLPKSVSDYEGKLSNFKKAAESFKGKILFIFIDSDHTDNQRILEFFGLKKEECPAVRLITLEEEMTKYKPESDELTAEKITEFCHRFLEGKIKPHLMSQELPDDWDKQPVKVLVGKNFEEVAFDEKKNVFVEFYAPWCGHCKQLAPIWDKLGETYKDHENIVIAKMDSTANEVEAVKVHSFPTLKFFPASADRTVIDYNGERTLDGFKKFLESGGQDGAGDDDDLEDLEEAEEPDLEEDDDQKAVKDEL
Put plainly: Test Example 1: inhibition of interliposomal triglyceride (TG) transfer activity by MTP (also used for metabolites in Test Example 8). The test is classed as biochemical. The method, then:
Inhibition of Interliposomal Triglyceride (TG) Transfer Activity by MTP
Microsomal triglyceride transfer protein (MTP) from bovine liver was partially purified in such a way described below. A buffer (50 mM Tris, 250 mM sucrose, 1 mM EDTA, 0.02% NaN3 (pH 7.4)) for making a homogenate preparation was added to bovine liver, and the mixture was homogenated under ice-cooling, then centrifuged at 10,000×g (4° C., 30 minutes). The supernatant was adjusted to pH 5.1 with hydrochloric acid, and stirred for 30 minutes. The solution was further centrifuged at 10,000×g (4° C., 30 minutes), and 1 mM Tris buffer was added to the precipitated residue, and the mixture was adjusted to pH 8.6 with sodium hydroxide. After addition of 2.7M ammonium sulfate solution, the mixture was stirred for 30 minutes, then centrifuged at 10,000×g (4° C., 40 minutes). The resulting supernatant was served as a crude extraction fraction of MTP and stored at −80° C. under freezing. In its practical use, the crude extraction fraction of MTP was purified by column chromatography on diethylaminoethyl (DEAE) Sepharose using FPLC (Fast Performance Liquid Chromatography) system, and the purified MTP was used for the test.
Small unilamellar-vesicle (SUV) liposome (donor, 0.25 mol % triolein, 5 mol % cardiolipin) labeled with ^14C-triolein and non-labeled SUV liposome (acceptor, 0.25 mol % triolein) were prepared. A fixed amount of donor and acceptor, and MTP were mixed with a sample dissolved in DMSO or with DMSO. The mixture was incubated in a 15 mM Tris hydrochloride buffer (pH 7.4) containing 40 mM sodium chloride, 1 mM EDTA (ethylenediaminetetraacetic acid), 0.02% NaN3 and 0.5% bovine serum albumin at 37° C. for one hour. After completion of the incubation, a suspension of DEAE cellulose (50% v/v) in 15 mM Tris hydrochloride buffer (pH 7.4) was added to the above solution, and the mixture was centrifuged to separate the donor and the acceptor. The radioactivity in the acceptor was measured by liquid scintillation counter. The value obtained by subtracting the radioactivity in the blank from the amount of radioactivity in the acceptor of a DMSO group was determined as MTP-mediated TG transfer activity, and it was compared with the value obtained by subtracting the radioactivity in the blank from the radioactivity in a sample group. The blank was prepared by adding 15 mM Tris-HCl buffer (pH 7.4) in place of MTP. Inhibition rate (%) was calculated from the values obtained according to the following equation.
Inhibition rate (%)=100×(1 minus ((radioactivity of sample group minus radioactivity of blank group)/(radioactivity of DMSO group minus radioactivity of blank group))).
50% Inhibition rate (IC50) was determined on the basis of the above equation.
Inhibitory Activity on MTP and apo B Secretion Inhibition by Metabolites
In a similar manner to Test Examples 1 and 2, the activity of metabolites was assayed.

Where [2] appears, read: 24 hours, apo B in supernatant by ELISA, read-out: Test Example 2 Inhibition of apo B secretion IC50.
[3] abbreviates: MTP-mediated 14C-triolein transfer between liposomes, 37° C., one hour, read-out: Test Example 1 MTP inhibition IC50.

One may read the IC50 as the midpoint of a concentration-inhibition curve. For the compound `CCCNC(=O)C(CCOC(=O)Cc1cccc(NC(=O)c2ccccc2-c2ccc(C(F)(F)F)cc2)c1)(C(=O)NCCC)c1ccccc1` [Example 5-5], the IC50 in the test with HepG2 cells (setting [2]) was found to be 5 nM; in test [1] (setting [3]) it was 4.5 nM.

With `CCOC(=O)C(COC(=O)Cc1ccc(NC(=O)c2ccccc2-c2ccc(C(F)(F)F)cc2)cc1)(C(=O)OCC)C1CCCCC1` [Example 1-31], the IC50 in the test with HepG2 cells (setting [2]) is 61 nM; in test [1] (setting [3]) it was 84.5 nM.

Regarding `CCNC(=O)C(COC(=O)Cc1ccc(OC(=O)c2ccccc2-c2ccc(C(F)(F)F)cc2)cc1)(C(=O)NCC)c1ccccc1` [Example 1-39], the IC50 in the test with HepG2 cells (setting [2]) amounted to 160 nM; in test [1] (setting [3]), 0.66 nM.

Turning to `CCOC(=O)C(COC(=O)Cc1ccc(NC(=O)c2ccccc2-c2ccc(C(F)(F)F)cc2)cc1)(Cc1ccccc1)C(=O)OCC` [Example 1-26], the values for the IC50 (in the test with HepG2 cells (setting [2]); in test [1] (setting [3])) were 620 nM and 630 nM, respectively.

Turning to `CCOC(=O)C(COC(=O)Cc1ccc(NC(=O)c2ccccc2-c2ccc(OC)cc2)cc1)(C(=O)OCC)c1ccccc1` [Example 1-47], the IC50 worked out at 750 nM with HepG2 cells (setting [2]) and 4.5 nM in test [1] (setting [3]).

For the compound `O=C(Cc1ccc(NC(=O)c2ccccc2-c2ccccc2)cc1)OCC(C(=O)NCC(F)(F)F)(C(=O)NCC(F)(F)F)c1ccccc1` [Example 1-32], the figures for the IC50 (in the test with HepG2 cells (setting [2]); in test [1] (setting [3])) were 720 nM and 8.6 nM, respectively.

For the compound `CCNC(=O)C(COC(=O)Cc1ccc(NC(=O)c2ccccc2C2CCCCC2)cc1)(C(=O)NCC)c1ccccc1` [Example 1-69], the figures for the IC50 (in the test on HepG2 cells (setting [2]); in test [1] (setting [3])) were 90 nM and 9.1 nM, respectively.

Consider `O=C(N[C@H]1CC[C@@H](C(=O)OCCC2(C(=O)NCC(F)(F)F)c3ccccc3-c3ccccc32)CC1)c1ccccc1-c1ccc(C(F)(F)F)cc1` [Example 7-2], for which the IC50 worked out at 26 nM in the test on HepG2 cells (setting [2]) and 2.46 nM in test [1] (setting [3]).

As for `CCOC(=O)C(CCOC(=O)c1ccc(NC(=O)c2ccccc2-c2ccc(C(F)(F)F)cc2)c(C)c1)(C(=O)OCC)c1ccccc1` [Example 6-15], the figures for the IC50 (with HepG2 cells (setting [2]); in test [1] (setting [3])) were 57 nM and 2 nM, respectively.

Turning to `CC(C)CCNC(=O)C(COC(=O)Cc1ccc(NC(=O)c2ccccc2-c2ccc(C(F)(F)F)cc2)cc1)(C(=O)NCCC(C)C)c1ccccc1` [Example 1-67], the IC50 was found to be 28 nM in the test on HepG2 cells (setting [2]) and 27 nM in test [1] (setting [3]).

For the compound `O=C(N[C@H]1CC[C@H](C(=O)OCCC2(C(=O)NCC(F)(F)F)c3ccccc3-c3ccccc32)CC1)c1ccccc1-c1ccc(C(F)(F)F)cc1` [Example 7, Trans-4-[(4′-trifluoromethylbiphenyl-2-carbonyl)amino]cyclohexanecarboxylic acid 2-[9-(2,2,2-trifluoroethylcarbamoyl)-9H-fluoren-9-yl]ethyl ester], the IC50 in the test with HepG2 cells (setting [2]) came out at 60 nM; in test [1] (setting [3]) it was 4.97 nM.

For `CN(C)C(=O)c1cc(CC(=O)O)ccc1NC(=O)c1ccccc1-c1ccc(C(F)(F)F)cc1`, the IC50 with HepG2 cells (main metabolites of the compounds (Test Example 8), read-out: Inhibition of apo B secretion IC50) was above 10000 nM; in test [1] (main metabolites of the compounds (Test Example 8), read-out: MTP inhibition IC50) it was above 10000 nM.

On to `CCOC(=O)C(COC(=O)CN1CCC(NC(=O)c2ccccc2-c2ccc(C(F)(F)F)cc2)CC1)(C(=O)OCC)c1ccccc1` [Example 8, 2-Phenyl-2-(2-{4-[(4′-trifluoromethylbiphenyl-2-carbonyl)amino]piperidin-1-yl}acetoxymethyl)malonic acid diethyl ester], for which the values for the IC50 (in the test on HepG2 cells (setting [2]); in test [1] (setting [3])) were 595 nM and 33 nM, respectively.

`CC(C)NC(=O)C(CCOC(=O)Cc1cccc(NC(=O)c2ccccc2-c2ccc(C(F)(F)F)cc2)c1)(C(=O)NC(C)C)c1ccccc1` [Example 5-8]: the IC50 was determined as 340 nM in the test on HepG2 cells (setting [2]) and 14 nM in test [1] (setting [3]).

`CCOC(=O)C(COC(=O)Cc1ccc(NC(=O)c2ccccc2-c2ccc(C(F)(F)F)cc2)cc1C(F)(F)F)(C(=O)OCC)c1ccccc1` [Example 1-34]: the results for the IC50 (in the test on HepG2 cells (setting [2]); in test [1] (setting [3])) were 100 nM and 23 nM, respectively.

Regarding `CNC(=O)C(COC(=O)Cc1ccc(NC(=O)c2ccccc2-c2ccc(C(F)(F)F)cc2)cc1)(C(=O)NC)c1ccccc1` [Example 1-36], the IC50 came out at 150 nM in the test with HepG2 cells (setting [2]) and 2 nM in test [1] (setting [3]).

Turning to `CCNC(=O)C(COC(=O)Cc1ccc(NC(=O)c2ccccc2-c2ccc(C(F)(F)F)cc2)c(C(=O)N(C)C)c1)c1ccccc1` (stereo not shown) [Example 2-21], the IC50 was 8.9 nM in the test with HepG2 cells (setting [2]) and 1.8 nM in test [1] (setting [3]).

Consider `CCOC(=O)C(COC(=O)Cn1cnc2c(NC(=O)c3ccccc3-c3ccc(C(F)(F)F)cc3)cccc21)(C(=O)OCC)c1ccccc1` [Example 9-11], for which the IC50 in the test on HepG2 cells (setting [2]) was 210 nM; in test [1] (setting [3]) it was 20 nM.

Consider `O=C(Cc1ccc(NC(=O)c2ccccc2-c2ccc(C(F)(F)F)cc2)cc1)OCC(C(=O)OC1CCCCC1)(C(=O)OC1CCCCC1)c1ccccc1` [Example 1-22], for which the IC50 was 180 nM with HepG2 cells (setting [2]) and 66.5 nM in test [1] (setting [3]).

With `CC(C)COC(=O)C(COC(=O)Cc1ccc(NC(=O)c2ccccc2-c2ccc(C(F)(F)F)cc2)cc1)(C(=O)OCC(C)C)c1ccccc1` [Example 1-63], the IC50 in the test with HepG2 cells (setting [2]) turned out to be 90 nM; in test [1] (setting [3]), 16 nM.
